Where two headings read alike, the source gives them in different places. Some results are limits rather than exact numbers.

This is an account of results in patent US11945826B2, “Hydroxypyridoxazepines as NRF2 activators” (GLAXOSMITHKLINE INTELLECTUAL PROPERTY DEVELOPMENT LIMITED, priority 2019, dated 2024).

One data set has as its target T1, human PXR (Homo sapiens, UniProt O75469).
T1 construct: expression vectors containing full length human PXR; expressed in transfected cells; host or cells: HepG2 (human hepatocellular carcinoma line), transient transfection with FuGENE
T1 sequence (O75469 1-434): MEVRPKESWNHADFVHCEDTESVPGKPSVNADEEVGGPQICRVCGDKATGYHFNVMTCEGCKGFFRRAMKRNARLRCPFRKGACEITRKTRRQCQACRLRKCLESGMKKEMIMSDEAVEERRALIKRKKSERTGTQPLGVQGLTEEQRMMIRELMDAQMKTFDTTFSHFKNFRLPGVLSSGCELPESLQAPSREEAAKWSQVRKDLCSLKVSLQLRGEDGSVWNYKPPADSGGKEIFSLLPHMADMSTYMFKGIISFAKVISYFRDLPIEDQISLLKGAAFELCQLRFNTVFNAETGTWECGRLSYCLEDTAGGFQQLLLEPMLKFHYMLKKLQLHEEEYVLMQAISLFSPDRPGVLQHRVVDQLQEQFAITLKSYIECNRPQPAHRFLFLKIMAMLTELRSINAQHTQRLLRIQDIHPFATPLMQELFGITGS
As to the kind of experiment: Human PXR Activation Assay. Type of data set: cell-based. Conditions: for EC50: HepG2 transfected with human PXR and CYP3A4 promoter luciferase, 24 h; for Emax at 24 h: human, percent maximum induction compared to 10 μM rifampicin. As for the experimental part:
Transactivation activity of PXR ligands was measured in a human hepatocellular carcinoma line (HepG2) batch transiently transfected using FuGENE™ with expression vectors containing full length human PXR and the human CYP3A4 promoter driving luciferase expression. Following transfection, cells are frozen until required for assay.
On day of assay, cells were recovered, counted on a CEDEX instrument then resuspended to a density of 50,000 cells/mL in phenol red-free DMEM-F12 supplemented with 10% charcoal/dextran-treated FBS. 20 μl of cell suspension was then dispensed to each well of white Nunc 384-well plates, containing […] of test compounds in DMSO. Cells were incubated for 24 h in the presence compound after which time […] of Steady-Lite™ luciferase substrate was added to each well. Luciferase activity was quantified by measurement on the Pherastar™ imager and activity was expressed as percent maximum induction as compared to induction by 10 μM rifampicin.

A further data set in a line: Monkey PK Study. Conditions: cynomolgus monkey; for MRT / clearance: male, plasma, nominal 1 mg/kg 60-minute intravenous infusion, cassette; for MRT: read-out: Monkey Pharmacokinetics MRT; for clearance: read-out: Monkey Pharmacokinetics Total Clearance. In kind it is in vivo. As for the experimental part:
All studies were conducted after review by the GSK Institutional Animal Care and Use Committee and in accordance with the GSK Policy on the Care, Welfare and Treatment of Laboratory Animals. A pre-study health examination that included a physical exam and complete blood count was performed on the animals prior to use on study. A catheter was temporarily placed in a cephalic or saphenous vein for sample collection on the study day. The animals were fasted overnight prior to dosing; food provided after the 4-hour blood sample was collected. The intravenous and oral solution pharmacokinetic studies were carried out using a non-crossover design; a total of four male cynomolgus monkeys were used, two per route of administration.
The compounds used in this study were the compound of Example 1, herein, and Compound A (the compound of Example 1 of WO 2018/109646).
The dose for intravenous administration was prepared as a cassette of up to five test compounds in 20% Cavitron™ and 5% DMSO. The intravenous dose formulation was filtered through a 0.22-micron polytetrafluoroethylene (PTFE) filter prior to administration. The dose for oral solution administration was prepared as a cassette of up to five compounds in 6% Cavitron™ and 5% DMSO and was filtered through a 0.22-micron VWR PTFE filter prior to administration.
Each animal received a nominal dose of 1 mg/kg/compound (4 mL/kg dose volume) either as a 60-minute intravenous infusion or as an oral gavage. Blood samples (approximately 0.25 mL each) were collected from a cephalic or saphenous vein. Blood samples from animals that received the intravenous dose were collected prior to dosing and at target times of 15, 30, 45, 60 (before termination of the infusion), 62, 65, 75, 90, 120, 180, 240, 360, 480, 600, and 1440 minutes following the initiation of the intravenous infusion. For animals that received the oral dose, blood samples were collected prior to dosing and at target times of 5, 15, 30, 45, 60, 90, 120, 180, 240, 360, 480, 600, and 1440 minutes following oral gavage. Plasma was isolated from blood by centrifugation and a 30 μL aliquot was transferred to a non-heparinized tube, quick frozen on solid carbon dioxide and stored at approximately −80° C. until analyzed by liquid chromatography/tandem mass spectroscopy (LC/MS/MS) for test compound concentration.
Pharmacokinetic parameters for all in vivo PK studies were calculated using non-compartmental methods with Phoenix WinNonlin version 6.1.0 or 8.1.0. All parameters were calculated using actual blood sampling times and actual dosages for each animal. The extrapolated area under the curve (AUC0-inf) was determined using unweighted linear regression analysis of at least three log transformed concentrations visually assessed to be on the linear portion of the terminal elimination slope. Oral solution bioavailability was calculated in a non-crossover fashion using the mean intravenous dose and AUC0-inf values from the two intravenously dosed animals for the monkey PK study and in a crossover fashion for the rat PK study.

Data set [1] deals with Nrf2 (NQO1 activity in BEAS-2B cells). As to the kind of experiment: BEAS-2B NQO1 MTT Assay. In kind it is cell-based. Conditions: Homo sapiens, NQO1 specific activity induction. An excerpt: NAD(P)H:quinone oxidoreductase 1 (NQO1), also called DT diaphorase, is a homodimeric FAD-containing enzyme that catalyzes obligatory NAD(P)H-dependent two-electron reductions of quinones and protects cells against the toxic and neoplastic effects of free radicals and reactive oxygen species arising from one-electron reductions. The transcription of NQO1 is finely regulated by Nrf2, and thus NQO1 activity is a good marker for Nrf2 activation. On day one, frozen BEAS-2B cells (ATCC) were thawed in a water bath, counted, and re-suspended at a concentration of 250,000 cells/mL. Fifty microliters of cells were plated in 384 well black clear-bottomed plates. Plates were incubated at 37° C., 5% CO2 overnight. On day two, plates were centrifuged and 50 nL of compound or controls were added to the cells. Plates were then incubated at 37° C., 5% CO2 for 48 hours. On day four, medium was aspirated from the plate and crude cell lysates were made by adding 13 μL of 1× Cell Signalling Technologies lysis buffer with 1 Complete, Mini, EDTA-free Protease Inhibitor Tablet (Roche) for each 10 mL of lysis buffer. After lysis plates were incubated for 20 minutes at room temperature. Two microliters of lysate were removed for use in Cell Titer Glo assay (Promega) and MTT cocktail was prepared (Prochaska et. al. 1998) for measurement of NQO1 activity. Fifty microliters of MTT cocktail was added to each well, plate was centrifuged, and analyzed on an Envision plate reader (Perkin Elmer) using Absorbance 570 nm label for 30 minutes. Product formation was measured kinetically and the pEC50 of NQO1 specific activity induction was calculated by plotting the change in absorbance (Delta OD/min) versus the log of compound concentration followed by 3-parameter fitting.
EC50s<1 nM (+++++), EC50s 1 nM-10 nM (++++), EC50s 10 nM-100 nM (+++), EC50s 100 nM-1 μM (++), EC50s 1 μM-10 μM (+).

Where [2] appears, read: read-out: Nrf2 BEAS-2B NQO1 EC50.

In the case of `CC[C@@H]1CN(Cc2cc([C@@H](CC(=O)O)c3ccc4c(nnn4C)c3C)ccc2C)Cc2ncccc2O1` [Compound A, reference compound], on human PXR, the EC50 – broadly, the concentration that produces a half-maximal response – came out at 25000 nM and the maximum response (Emax) (in general, the size of the effect at its maximum, as opposed to the concentration needed) at 24 h is 56%. In addition, in “Monkey PK Study”, the MRT – broadly, the average time that molecules of a dose stay in the body – amounted to 1.6 h and the clearance (commonly the rate of elimination divided by the concentration) worked out at 10.9 mL/min/kg. In data set [1] (setting [2]), the EC50 was 16 nM.

With `CC[C@@H]1CN(Cc2cc([C@@H](CC(=O)O)c3ccc4c(nnn4C)c3C)ccc2C)Cc2nc(O)ccc2O1` [Example 1, (R)-3-(1,4-dimethyl-1H-benzo[d][1,2,3]triazol-5-yl)-3-(3-(((R)-2-ethyl-7-hydroxy-2,3-dihydropyrido[2,3-f][1,4]oxazepin-4(5H)-yl)methyl)-4-methylphenyl)propanoic acid], on human PXR, the EC50 is more than 50000 nM and the maximal effect (Emax) at 24 h is 10%. Moreover, in “Monkey PK Study”, the “fold improvement in mean residence time (MRT) versus Compound A” value is approximately 11 fold, the “fold reduction in total clearance (CL) versus Compound A” value is recorded as approximately 27 fold, the MRT is 18 h and the clearance came out at 0.41 mL/min/kg. Further, the EC50 in data set [1] (48 hours, read-out: EC50) lay in the range of 10 to 100 nM. Besides, the EC50 in data set [1] (setting [2]) turned out to be 13 nM.
